Results from US6613340B2, “Substantive hydrophobic cationic UV-absorbing compounds” (Galaxy Surfactants Ltd., priority 2001, dated 2003).

Assay: UV absorption (molar extinction coefficient)
Format: physicochemical
Settings: in methanol
Protocol: Ethyl p-methoxy cinnamate (206.0 g, 1.0 mole), N,N-dimethylpropyldiamine (306.0 g, 3.0 mole) and sodium methoxide (2.0 g) were charged in a pressure reactor. The air inside the reactor was flushed out by purging of nitrogen. The reaction mixture was then stirred at 180° C. (this generated pressure of 18 kg/cm^2) for 36 hours. The progress of reaction was monitored by disappearance of ethyl p-methoxy cinnamate on chromatography (TLC and HPLC). The TLC was performed on aluminium coated silica gel plates (Merck-60-F-254) and viewed with a UV lamp at 254 nm. HPLC was performed using reversed phase technique on a C-18 bonded (octadecyl silane) column and 60% aqueous methanol as mobile phase (1.0 ml/min) and detection at 280 nm. The excess amine was removed under vacuum.

CCCCCCCCCCCC[N+](C)(C)CCCNC(=O)C=Cc1ccc(OC)cc1.Cc1ccc(S(=O)(=O)[O-])cc1 [p-methoxy cinnamidopropyldimethyllauryl ammonium tosylate]
molar extinction coefficient, ε (at λmax 310 nm): 25,000

COc1ccc(C=CC(=O)NCCCN(C)C)cc1 [p-methoxy cinnamidopropyldimethylamine]
molar extinction coefficient, ε (at 290 nm, in M-1cm-1 (unit assumed)): 24,224
